Source: US9828381B2, “Substituted pyrazolopyrimidines and method of use” (AbbVie Deutschland GmbH & Co. KG, priority 2015, dated 2017)

Target: GABA-B receptor (Rattus norvegicus (Rat), UniProt O88871+Q9Z0U4)
Experiment: [35S]GTPgS binding assay, rat cortical membranes, in presence of EC25 GABA
Type: biochemical
Details: rat brain cortex membranes; in presence of 1 μM GABA (EC25); positive allosteric modulation
Description: Preparation of Rat Brain Membranes for Native Receptor Assays
Membranes from rat brain cortex were prepared as described in detail by Olpe et al. and stored at concentrations of 1.66 mg/mL protein at −80° C. until required. (Olpe, H.-R, et al. Eur J Pharmacol 1990; 187: 27-38).
[^35S] GTPgS Binding Assay
The composition of the assay mixtures [in a final volume of 200 μL in 96-well U-bottom plates (Greiner) was as follows: 50 mM Tris-HCl buffer, pH 7.7, 10 mM MgCl2, 0.2 mM EGTA, 2 mM CaCl2, 100 mM NaCl, 20 µM guanosine 5′-diphosphate (Sigma), 0.3 nM [^35S]GTPgS (1250 Ci/mmol (PerkinElmer)), and the test compounds at increasing concentrations (from 10 nM up to […]), […] of rat cortical membranes, and a concentration of […], that has been observed in previous experiments to correspond to the EC25, a concentration that gives 25% of the maximal response of GABA. The samples were incubated at room temperature for 60 minutes on a shaker. The incubation was stopped by rapid vacuum filtration over glass-fiber filter plates (UniFilter-96 well, GF/B membrane plates, PerkinElmer) using a 96-well plate harvester (TOMTEK© Harvester). The UniFilter plate was washed five times with ice-cold wash buffer (50 mM Tris-HCl buffer, pH 7.7, 10 mM MgCl2, and 100 mM NaCl. After filtration the plate was dried for 90 minutes at 55° C. The plates were closed on the bottom with black sealing membranes, and liquid scintillation cocktail (35 μL, Betaplate Scint, PerkinElmer) was added to each well. After sealing the top of the plate, an additional incubation step of 90 minutes at room temperature followed before measuring the plate. The amount of membrane-bound [^35S]GTPgS was measured using a 96-well plate reader (Microbeta®, PerkinElmer). Nonspecific binding was measured in the presence of unlabeled 10 μM of GTPgS (Millipore) and without GABA. Basal binding was measured in the absence of 1 μM GABA, and maximal binding was measured in the presence of GABA using 1 mM GABA concentrations.
Data analysis. The concentration-response curves of compounds of the present disclosure in the presence of EC25 of GABA-B receptor agonist were generated using the GraphPad Prism® program (GraphPad Software, San Diego, Calif.). Data was normalized using basal binding as 0% and maximal binding as 100%. The curves were fitted by nonlinear regression allowing determination of EC50 values from sigmoidal dose-response curves. Each curve was performed using triplicate sample per date point and 10 concentrations.

Sequence of GABA-B receptor (Q9Z0U4 17-960): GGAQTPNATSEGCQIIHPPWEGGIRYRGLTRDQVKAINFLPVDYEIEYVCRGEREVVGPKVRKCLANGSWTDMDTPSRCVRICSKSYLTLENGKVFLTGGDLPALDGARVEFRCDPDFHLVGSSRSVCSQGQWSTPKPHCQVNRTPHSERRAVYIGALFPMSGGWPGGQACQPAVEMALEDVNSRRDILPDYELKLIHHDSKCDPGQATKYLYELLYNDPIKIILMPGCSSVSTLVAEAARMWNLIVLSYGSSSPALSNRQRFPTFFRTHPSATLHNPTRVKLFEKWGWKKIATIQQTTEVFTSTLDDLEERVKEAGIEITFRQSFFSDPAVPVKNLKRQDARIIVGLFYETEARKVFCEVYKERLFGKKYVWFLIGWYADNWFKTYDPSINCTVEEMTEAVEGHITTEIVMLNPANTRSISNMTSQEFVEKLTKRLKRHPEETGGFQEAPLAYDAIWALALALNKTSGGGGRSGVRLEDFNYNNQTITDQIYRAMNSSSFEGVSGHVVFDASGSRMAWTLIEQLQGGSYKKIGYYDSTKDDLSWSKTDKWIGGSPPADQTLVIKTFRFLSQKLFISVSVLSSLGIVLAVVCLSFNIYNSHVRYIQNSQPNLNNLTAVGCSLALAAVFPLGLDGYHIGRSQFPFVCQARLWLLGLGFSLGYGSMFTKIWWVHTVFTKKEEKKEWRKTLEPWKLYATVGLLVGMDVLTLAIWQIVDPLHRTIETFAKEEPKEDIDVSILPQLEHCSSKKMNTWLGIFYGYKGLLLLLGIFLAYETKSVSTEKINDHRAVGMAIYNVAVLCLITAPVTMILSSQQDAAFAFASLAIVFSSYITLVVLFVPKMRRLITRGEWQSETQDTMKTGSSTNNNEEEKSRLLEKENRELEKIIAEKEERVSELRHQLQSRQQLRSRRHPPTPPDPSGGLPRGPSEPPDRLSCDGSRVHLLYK
Sequence of GABA-B receptor (O88871 41-940): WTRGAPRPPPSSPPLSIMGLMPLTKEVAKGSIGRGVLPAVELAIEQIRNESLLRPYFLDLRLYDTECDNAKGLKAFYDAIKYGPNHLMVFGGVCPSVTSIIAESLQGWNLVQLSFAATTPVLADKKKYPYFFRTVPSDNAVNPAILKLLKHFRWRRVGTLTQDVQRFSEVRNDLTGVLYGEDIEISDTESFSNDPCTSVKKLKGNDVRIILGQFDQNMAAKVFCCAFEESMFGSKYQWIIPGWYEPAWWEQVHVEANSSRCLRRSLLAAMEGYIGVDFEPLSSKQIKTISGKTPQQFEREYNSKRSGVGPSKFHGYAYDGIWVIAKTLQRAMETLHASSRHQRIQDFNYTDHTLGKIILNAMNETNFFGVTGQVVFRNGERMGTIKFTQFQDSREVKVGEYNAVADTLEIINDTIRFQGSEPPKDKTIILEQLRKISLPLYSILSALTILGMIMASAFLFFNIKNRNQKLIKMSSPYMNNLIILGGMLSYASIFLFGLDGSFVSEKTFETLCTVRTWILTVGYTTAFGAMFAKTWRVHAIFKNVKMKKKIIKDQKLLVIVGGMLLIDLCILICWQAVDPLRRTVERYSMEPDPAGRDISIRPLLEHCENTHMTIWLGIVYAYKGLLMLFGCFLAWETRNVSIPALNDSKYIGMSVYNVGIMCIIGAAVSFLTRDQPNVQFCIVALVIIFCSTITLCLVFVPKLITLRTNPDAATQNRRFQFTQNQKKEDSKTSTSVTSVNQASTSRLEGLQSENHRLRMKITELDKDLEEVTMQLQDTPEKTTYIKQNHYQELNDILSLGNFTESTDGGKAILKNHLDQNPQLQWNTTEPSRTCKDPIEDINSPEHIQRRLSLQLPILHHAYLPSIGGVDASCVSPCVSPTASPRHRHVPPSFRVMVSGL

With Cc1cc(NC2(C)CC2)n2nc(C(C)c3ccc(Cl)cn3)cc2n1 (stereo not shown) [Example 9-7, 2-[1-(5-chloropyridin-2-yl)ethyl]-5-methyl-N-(1-methylcyclopropyl)pyrazolo[1,5-a]pyrimidin-7-amine] the EC50 was 1320 nM.
Cc1cc(N[C@H]2C[C@@H](O)C2)n2nc(C(C)c3ccc(Cl)cc3)cc2n1 (relative stereo) [Example 2-18, cis-3-({2-[1-(4-chlorophenyl)ethyl]-5-methylpyrazolo[1,5-a]pyrimidin-7-yl}amino)cyclobutanol] gave an EC50 of 499 nM.
Cc1cc(N2CCCC(CO)C2)n2nc(C(C)c3ccc(Cl)cn3)cc2n1 (stereo not shown) [Example 9-1, (1-{2-[1-(5-chloropyridin-2-yl)ethyl]-5-methylpyrazolo[1,5-a]pyrimidin-7-yl}piperidin-3-yl)methanol] showed an EC50 of 1540 nM.
In the case of Cc1cc(N2CC3(CCOCC3)C2)n2nc(C(C)c3ccc(C(F)(F)F)cc3)cc2n1 (stereo not shown) [Example 8-4, 5-methyl-7-(7-oxa-2-azaspiro[3.5]non-2-yl)-2-{1-[4-(trifluoromethyl)phenyl]ethyl}pyrazolo[1,5-a]pyrimidine], the EC50 is reported as 827 nM.
Work on Cc1cc(N2CCCCC2CCO)n2nc(C(c3ccc(Cl)cc3)C(C)C)cc2n1 (stereo not shown) [Example 4-1, 2-(1-{2-[1-(4-chlorophenyl)-2-methylpropyl]-5-methylpyrazolo[1,5-a]pyrimidin-7-yl}piperidin-2-yl)ethanol] yielded an EC50 of 5 nM.
Cc1cc(N2CC3(CCOCC3)C2)n2nc(C(C)c3ccc(Cl)cc3)cc2n1 (stereo not shown) [Example 2-13, 2-[1-(4-chlorophenyl)ethyl]-5-methyl-7-(7-oxa-2-azaspiro[3.5]non-2-yl)pyrazolo[1,5-a]pyrimidine] showed an EC50 of 446 nM.
In the case of Cc1cc(NC2CC(F)C2)n2nc(C(C)c3ccc(C(F)(F)F)cc3)cc2n1 (stereo not shown) [Example 8-6, N-(3-fluorocyclobutyl)-5-methyl-2-{1-[4-(trifluoromethyl)phenyl]ethyl}pyrazolo[1,5-a]pyrimidin-7-amine], the EC50 is reported as 509 nM.
With Cc1cc(NC2CC(F)(F)C2)n2nc(C(C)c3ccc(Cl)cc3)cc2n1 (stereo not shown) [Example 2-21, 2-(1-(4-chlorophenyl)ethyl)-N-(3,3-difluorocyclobutyl)-5-methylpyrazolo[1,5-a]pyrimidin-7-amine] the EC50 was 394 nM.
Compound Cc1cc(N2CCCCC2CCO)n2nc(C(C)c3ccc(Cl)cc3)cc2n1 (stereo not shown) [Example 2-1, 2-(1-{2-[1-(4-chlorophenyl)ethyl]-5-methylpyrazolo[1,5-a]pyrimidin-7-yl}piperidin-2-yl)ethanol] has an EC50 of 118 nM.
In the case of Cc1cc(N2CCCCC2CO)n2nc(C(C)c3ccc(Cl)cc3)cc2n1 (stereo not shown) [Example 2-5, (1-{2-[1-(4-chlorophenyl)ethyl]-5-methylpyrazolo[1,5-a]pyrimidin-7-yl}piperidin-2-yl)methanol], the EC50 is reported as 146 nM.
Cc1cc(N[C@H]2C[C@H](O)C2)n2nc(C(C)c3ccc(Cl)cc3)cc2n1 (relative stereo) [Example 2-19, trans-3-({2-[1-(4-chlorophenyl)ethyl]-5-methylpyrazolo[1,5-a]pyrimidin-7-yl}amino)cyclobutanol] gave an EC50 of 1310 nM.
With Cc1cc(NCC2CC(F)(F)C2)n2nc(C(C)c3ccc(C(F)(F)F)cc3)cc2n1 (stereo not shown) [Example 8-14, N-[(3,3-difluorocyclobutyl)methyl]-5-methyl-2-{1-[4-(trifluoromethyl)phenyl]ethyl}pyrazolo[1,5-a]pyrimidin-7-amine] the EC50 was 593 nM.
With Cc1cc(N2CCCC2)n2nc(Cc3ccc(Cl)cc3)cc2n1 [Example 1-12, 2-(4-chlorobenzyl)-5-methyl-7-(pyrrolidin-1-yl)pyrazolo[1,5-a]pyrimidine] the EC50 was 3970 nM.
Cc1cc(N2CCC[C@H](O)C2)n2nc(C(C)c3ccc(Cl)cn3)cc2n1 (stereo partly drawn) [Example 9-3, (3S)-1-{2-[1-(5-chloropyridin-2-yl)ethyl]-5-methylpyrazolo[1,5-a]pyrimidin-7-yl}piperidin-3-ol] gave an EC50 of 2020 nM.
For Cc1cc(N2CCC[C@@H](O)C2)n2nc(Cc3ccc(Cl)cc3)cc2n1 [Example 1-7, (3R)-1-[2-(4-chlorobenzyl)-5-methylpyrazolo[1,5-a]pyrimidin-7-yl]piperidin-3-ol], the EC50 was 1230 nM.
Cc1cc(N2CCC[C@@H](O)C2)n2nc(C(C)c3ccc(C(F)(F)F)cc3)cc2n1 (stereo partly drawn) [Example 8-5, (3R)-1-(5-methyl-2-{1-[4-(trifluoromethyl)phenyl]ethyl}pyrazolo[1,5-a]pyrimidin-7-yl)piperidin-3-ol] gave an EC50 of 365 nM.
Compound Cc1cc(NC2CC(F)C2)n2nc(C(C)c3ccc(Cl)cc3)cc2n1 (stereo not shown) [Example 2-14, 2-[1-(4-chlorophenyl)ethyl]-N-(3-fluorocyclobutyl)-5-methylpyrazolo[1,5-a]pyrimidin-7-amine] has an EC50 of 165 nM.
With CC(=O)N[C@H]1CCN(c2cc(C)nc3cc(C(C)c4ccc(C(F)(F)F)cc4)nn23)C1 (stereo partly drawn) [Example 8-7, N-[(3S)-1-(5-methyl-2-{1-[4-(trifluoromethyl)phenyl]ethyl}pyrazolo[1,5-a]pyrimidin-7-yl)pyrrolidin-3-yl]acetamide] the EC50 was 2000 nM.
For Cc1cc(N2CCCCC2CCO)n2nc(Cc3cccc(C(F)(F)F)c3)cc2n1 (stereo not shown) [Example 6-1, 2-(1-{5-methyl-2-[3-(trifluoromethyl)benzyl]pyrazolo[1,5-a]pyrimidin-7-yl}piperidin-2-yl)ethanol], the EC50 was 1820 nM.
Work on CC(=O)N[C@H]1CCN(c2cc(C)nc3cc(Cc4ccc(Cl)cc4)nn23)C1 [Example 1-17, N-{(3S)-1-[2-(4-chlorobenzyl)-5-methylpyrazolo[1,5-a]pyrimidin-7-yl]pyrrolidin-3-yl}acetamide] yielded an EC50 greater than 10000 nM.
Compound Cc1cc(N2CCCC(F)(F)C2)n2nc(C(C)c3ccc(Cl)cn3)cc2n1 (stereo not shown) [Example 9-4, 2-[1-(5-chloropyridin-2-yl)ethyl]-7-(3,3-difluoropiperidin-1-yl)-5-methylpyrazolo[1,5-a]pyrimidine] has an EC50 of 628 nM.
Cc1cc(N2CCC3(COC3)C2)n2nc(C(C)c3ccc(C(F)(F)F)cc3)cc2n1 (stereo not shown) [Example 8-3, 5-methyl-7-(2-oxa-6-azaspiro[3.4]oct-6-yl)-2-{1-[4-(trifluoromethyl)phenyl]ethyl}pyrazolo[1,5-a]pyrimidine] showed an EC50 of 420 nM.
Compound Cc1cc(NC2(C)CC2)n2nc(C(C)c3ccc(Cl)cc3)cc2n1 (stereo not shown) [Example 2-2, 2-[1-(4-chlorophenyl)ethyl]-5-methyl-N-(1-methylcyclopropyl)pyrazolo[1,5-a]pyrimidin-7-amine] has an EC50 of 435 nM.
Cc1cc(N2CCC[C@@H](O)C2)n2nc(C(C)c3ccc(Cl)cc3)cc2n1 (stereo partly drawn) [Example 2-11, (3R)-1-{2-[1-(4-chlorophenyl)ethyl]-5-methylpyrazolo[1,5-a]pyrimidin-7-yl}piperidin-3-ol] gave an EC50 of 57 nM.
Cc1cc(N2CCCCC2)n2nc(Cc3ccc(Cl)cc3)cc2n1 [Example 1-9, 2-(4-chlorobenzyl)-5-methyl-7-(piperidin-1-yl)pyrazolo[1,5-a]pyrimidine] was tested, and the EC50 was 2570 nM.
Cc1cc(N2CCC(F)(F)C2)n2nc(C(C)c3ccc(Cl)cc3)cc2n1 (stereo not shown) [Example 2-3, 2-[1-(4-chlorophenyl)ethyl]-7-(3,3-difluoropyrrolidin-1-yl)-5-methylpyrazolo[1,5-a]pyrimidine] showed an EC50 of 508 nM.
In the case of Cc1cc(N2CCC(O)C(F)(F)C2)n2nc(Cc3ccc(Cl)cc3)cc2n1 (stereo not shown) [Example 1-5, 1-[2-(4-chlorobenzyl)-5-methylpyrazolo[1,5-a]pyrimidin-7-yl]-3,3-difluoropiperidin-4-ol], the EC50 is reported as 5930 nM.
CC(=O)N[C@@H]1CCN(c2cc(C)nc3cc(Cc4ccc(Cl)cc4)nn23)C1 [Example 1-11, N-{(3R)-1-[2-(4-chlorobenzyl)-5-methylpyrazolo[1,5-a]pyrimidin-7-yl]pyrrolidin-3-yl}acetamide] gave an EC50 greater than 10000 nM.
Cc1cc(NC2(C)CC2)n2nc(C(C)c3ccc(C(F)(F)F)cc3)cc2n1 (stereo not shown) [Example 8-8, 5-methyl-N-(1-methylcyclopropyl)-2-{1-[4-(trifluoromethyl)phenyl]ethyl}pyrazolo[1,5-a]pyrimidin-7-amine] was tested, and the EC50 was 746 nM.
Compound Cc1cc(N2CCC[C@H](CO)C2)n2nc(Cc3ccc(Cl)cc3)cc2n1 [Example 1-8, {(3S)-1-[2-(4-chlorobenzyl)-5-methylpyrazolo[1,5-a]pyrimidin-7-yl]piperidin-3-yl}methanol] has an EC50 of 1300 nM.
Cc1cc(N2CCNC(=O)C2CCO)n2nc(C(C)c3ccc(C(F)(F)F)cc3)cc2n1 (stereo not shown) [Example 8-13, 3-(2-hydroxyethyl)-4-(5-methyl-2-{1-[4-(trifluoromethyl)phenyl]ethyl}pyrazolo[1,5-a]pyrimidin-7-yl)piperazin-2-one] was tested, and the EC50 was 2550 nM.
